Results on two molecules are retold here after US8575214B2, “MGlu 2/3 agonists” (Eli Lilly and Company, priority 2012, dated 2013).

The target of one series is T1, human mGlu2 receptor (Homo sapiens, UniProt Q14416).
T1 construct: expressed in transfected cells; host or cells: AV-12 cells (Syrian hamster fibroblasts), co-transfected with rat EAAT1 and Galpha15
Put plainly: Human mGlu2 agonist FLIPR assay. Type of series: cell-based. As to conditions: AV-12 cells expressing human mGlu2, EAAT1 and Gα15; relative EC50; ±5.9 SEM, n=3; read-out: EC50 in the hmGlu2 FLIPR assay. The text has this:
(§1) AV-12 cell lines, derived from Syrian Hamster fibroblasts and stably expressing the human mGlu2 or mGlu3 receptor and co-transfected with the rat glutamate transporter EAAT 1 (Excitatory Amino Acid Transporter 1) and the Gα15 subunit, are used for these studies. The expression of Gα15 allows Gi-coupled receptors to signal through the phospholipase C pathway, resulting in the ability to measure receptor activation by a fluorometric calcium response assay. […] Intracellular calcium levels are monitored before and after the addition of compounds using a Fluorometric Imaging Plate Reader (FLIPR, Molecular Devices). […] Results are analyzed using Prism v4.03 (GraphPad Software). […] After taking an initial 5-sec fluorescent read on the FLIPR instrument, a compound of the invention is added to the cell plate (50 μL per well). […] The compound effect is measured as maximal minus minimal peak heights in relative fluorescent units (RFUs) corrected for basal fluorescence measured in the absence of glutamate. […] Agonist effects are quantified as percent stimulation induced by compound alone relative to the maximal glutamate response. All data are calculated as relative EC50 values using a four-parameter logistic curve fitting program (ActivityBase v5.3.1.22).

Another series has as its target T2, human mGlu3 receptor (Homo sapiens, UniProt Q14832).
T2 construct: expressed in transfected cells; host or cells: AV-12 cells (Syrian hamster fibroblasts), co-transfected with rat EAAT1 and Galpha15
Briefly: Human mGlu3 agonist FLIPR assay. Format: cell-based. As to conditions: AV-12 cells expressing human mGlu3, EAAT1 and Gα15; relative EC50; ±52.5 SEM, n=8; read-out: EC50 in the hmGlu3 FLIPR assay.
Source text: as §1

Another series has as its system male Sprague-Dawley rats. Briefly: Reversal of persistent pain induced by formalin injection. Type of series: in vivo. As to conditions: ip, dosed 1 hour prior to intraplantar formalin, rat.
In series [1] the test system is male, Sprague-Dawley rats. Put plainly: Reversal of phencyclidine (PCP)-induced hyperlocomotor activity in rats. Format: in vivo, rat. An excerpt:
Motor activity is monitored by placing individual male, Sprague-Dawley (Harlan, Indianapolis, Ind.) rats in transparent, plastic shoe-box cages of the dimensions 45×25×20 cm, with 1 cm depth of wood chips as bedding, and a metal grill on top of the cage. Motor monitors (Kinder Scientific) consist of a rectangular rack of 12 photobeams arranged in an 8×4 formation, (or a high density grouping of 22 in a 15×7 pattern) at a height of 5 cm, with a second rack (for measuring rearing behaviors) at a height of 15 cm. The shoe box cage is placed inside of these racks, with the racks on a 3 foot high tabletop in an isolated room. A compound of the invention (active) is dosed (intraperitoneal route) within a range of 0.3-10 mg/kg, 30 minutes prior to a 5 mg/kg challenge dose of phencyclidine (PCP). A compound of the invention (prodrug) is orally dosed within a range of 0.3-30 mg/kg, in overnight fasted rats, 4 hours prior to a 5 mg/kg challenge dose of PCP. On the test day, rats are placed in the test cage and allowed to acclimate for 30 minutes prior to PCP challenge; rats are monitored for an additional 60 minutes following PCP administration.
Data analysis and ED50 calculations are conducted using GraphPad Prism (San Diego, Calif. USA). Power analyses have determined that 8-10 rats per group are needed to have appropriate statistical power for detecting treatment differences (power=0.8). A one-way analysis of variance (ANOVA) with a post-hoc Dunnett's multiple comparison test is conducted on the total 60 minute locomotor activity. ED50 calculations are performed using non-linear regression curve fitting on percent reversal transformed data for each dose.

The test system of the next series is Male Fischer F-344 rats. Briefly: Attenuation of stress-induced hyperthermia in rats. Format: in vivo. As to conditions: rat, 1-hr pretreatment, relative to vehicle response. An excerpt: In many anxiety disorders, hyperthermia occurs as part of the pathology and is considered a symptom of the disease. Compounds which attenuate stress-induced hyperthermia in animals are believed to be useful in treating anxiety disorders in humans. Generalized anxiety disorder and post traumatic stress disorder are among the disorders that may be treated with such compounds. The conventional and minimally-invasive method for analyzing stress-induced hyperthermia is by measuring body temperature, and stress-induced increases in body temperature, via rectal thermometer. Male Fischer F-344 rats (Harlan, Indianapolis, Ind., USA) weighing between 275-350 g are tested. All animals are individually-housed with food and automated water available ad libitum, and maintained on a 12 h light/dark cycle (lights on at 06:00). Animals are fasted for approximately 12-18 hours before the experiment, which is conducted during the light phase. Rats are dosed intraperitoneal (IP) in a dose volume of 1 mL/kg with compounds of the invention in the range of 0.3, 1, 3, and 10, mg/kg. […]
After the pretreatment period, rats are taken individually to a brightly lit adjacent room where baseline body temperatures are determined by insertion of a rectal probe lubricated with mineral oil. Body temperature is assessed using a […] […] Ten minutes later a second body temperature measurement is recorded (T2). […]

The next series deals with T3, hPepT1 (Homo sapiens, UniProt P46059).
T3 construct: expressed in transfected cells; host or cells: HeLa cells (ATCC), transient transfection with PepT1 DNA using FuGene6
T3 sequence (P46059 1-708): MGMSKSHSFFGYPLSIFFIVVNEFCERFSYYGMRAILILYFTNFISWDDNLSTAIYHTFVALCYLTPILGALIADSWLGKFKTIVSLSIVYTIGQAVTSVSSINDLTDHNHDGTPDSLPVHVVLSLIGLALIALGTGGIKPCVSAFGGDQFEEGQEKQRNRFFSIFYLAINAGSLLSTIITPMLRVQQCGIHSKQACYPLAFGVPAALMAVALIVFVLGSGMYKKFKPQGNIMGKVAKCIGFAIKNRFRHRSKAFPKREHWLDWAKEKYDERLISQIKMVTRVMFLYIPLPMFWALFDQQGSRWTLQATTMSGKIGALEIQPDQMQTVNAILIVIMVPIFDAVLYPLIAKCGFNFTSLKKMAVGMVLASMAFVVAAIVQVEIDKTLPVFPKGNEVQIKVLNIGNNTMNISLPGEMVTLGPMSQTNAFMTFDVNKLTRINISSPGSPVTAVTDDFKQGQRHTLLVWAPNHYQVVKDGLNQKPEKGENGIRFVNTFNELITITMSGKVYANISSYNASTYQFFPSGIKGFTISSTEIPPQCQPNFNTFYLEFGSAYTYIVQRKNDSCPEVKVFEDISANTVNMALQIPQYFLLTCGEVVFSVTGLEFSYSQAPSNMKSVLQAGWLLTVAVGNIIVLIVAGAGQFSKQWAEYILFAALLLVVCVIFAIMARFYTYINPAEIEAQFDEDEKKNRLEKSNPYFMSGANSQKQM
Briefly: In vitro PepT1 GlySar inhibition screen and IC50 determination. Format: cell-based. As to conditions: PepT1 transiently transfected HeLa cells. The method, then:
HeLa cells, […], (American Type Culture Collection) are grown in Hyclone Medium (Invitrogen, Cat# SH30243) containing 10% fetal bovine serum (FBS), 0.1 mM non essential amino acids (NEAA), and 100 units/mL penicillin with 100 μg/mL streptomycin at 37° C. in a 5% CO2 humidified atmosphere. The cell line is used for up to 40 passages and then discarded. Frozen cells in 1 ml vials are thawed in water bath for 1-2 minutes and added to 5 mL of cell medium at 37° C. Each of the T-flasks is provided with 8.5 mL of the fresh medium and 1.5 mL of the cell stock. Cells are passaged twice during a week. This is achieved by rinsing the flasks with 10 mL of phosphate buffered saline-ethylene diaminetetra acetic acid (PBS-EDTA), adding 2 mL of trypsin for 2-5 minutes, to detach the cells, and adding 8 mL of fresh medium to inhibit further activity of trypsin. Each new flask receives a combination of 8.5 mL of fresh medium and 1.5 mL of cell stock, in order to obtain 1:6 cell dilution. Cells are incubated at 37° C., until ready for the uptake study.
Cells that are 70-80% confluent in the T-flasks are plated 1 day prior to the transfection procedure. The flask with the cell stock is treated with PBS-EDTA and trypsin to detach the cells, and transfection medium is used from this point. Transfection medium consists of Dulbecco's Modified Eagle Medium (DMEM)+NEAA. To each well, 0.5 mL of the cell mixture is added (1.3×10^5 is the desired cell concentration) and the cells are incubated at 37° C. overnight. Twenty four hours before the assay, cells are transfected with PEPT1. Transfection mixture is prepared by mixing 600 μL of serum free transfection medium, 18 μL of FuGene6 (Roche Diagnostics), and 11 μg of the PepT1 DNA. The transfection reagent-DNA complex is incubated for 20 minutes and 24 μL of the reagent-DNA complex is added to each well.
J. Pharm. Exper Ther. 310:437-445). […] Uptake media consists of 140 mM NaCl, 5.4 mM KCl, 1.8 mM CaCl2, 0.8 mM MgSO4, 5 mM Glucose, 25 mM tris(hydroxymethyl)aminomethane buffer (TRIS). The solution is then brought to pH 6.0 using 2-(N-morpholino)ethanesulfonic acid. The incubation volume is 500 μL and is performed at room temperature for 3 minutes. To stop the uptake at the conclusion of the incubation time, the uptake media is aspirated off of the cell monolayer and 500 μL of ice cold PBS added to the well. The cells are washed 3 times with 500 μL of room temperature PBS without Ca^+2 and Mg^+2. The cells are then lysed with 300 μL of 1% Triton X100 H2O solution. […] A no inhibitor control is established and the percent inhibition of each prodrug is calculated with respect to this control.
The incubation and sampling procedures are exactly the same as the PepT1 screen described above.

For series [2] the following is noted: 1 h, 10 µM, pH 7.4.
Experimental: Frozen human duodenum intestinal homogenates (1:2 tissue:buffer ratio using 100 mM Tris Phosphate buffer, pH 7.4) are obtained from Celsius In Vitro Technologies (Baltimore, Md.) that were both phenylmethylsulphonylfluoride (PMSF) and EDTA free.
All original tissue collections are performed at 4° C. and immediately frozen at −70° C. Human intestinal homogenates are thawed and diluted to a final protein concentration of 0.5 mg/mL in 100 mM PBS buffer, pH 7.4 immediately prior to the incubations.
Incubations are conducted in 96-well plates and all prodrugs are run in duplicate on each day. Stock prodrug solutions are prepared in water at a concentration of 1 mM. A 200 μL aliquot of 0.5 mg/mL intestinal homogenate and 196 μL of 100 mM PBS buffer are placed in a 96-well plate in a 37° C. water bath. Using a 96-well pipettor, 4 μL of the 1 mM prodrug solution is transferred into the homogenate. Immediately after addition of the prodrug (time zero) and after 1 hour incubation, 50 μL samples of the incubation mixture are removed using an automated disposable simultaneous 96 well pipettor and added directly to 200 μL of methanol quench solution containing 100 ng/mL of Internal Standard. The samples are then centrifuged at 3500 rpm for 5 minutes at 10° C. The supernatant (200 μL) is transferred to a final 96 well PCR plate and sealed for analysis by LC/MS/MS.
Concentrations of hydrolyzed active metabolite in the incubation mixtures are determined using LC/MS/MS detection on a Sciex API 4000 quadrapole mass spectrometer with Analyst version 1.4.2, TurbolonSpray, positive ionization, and Selected Reaction Monitoring (SRM). […]
Averages and standard deviations are calculated using Microsoft® Office Excel® 2007. Amount of hydrolysis is determined as a molar percentage of active metabolite formed relative to prodrug concentration added.

T1 sequence (Q14416 19-872): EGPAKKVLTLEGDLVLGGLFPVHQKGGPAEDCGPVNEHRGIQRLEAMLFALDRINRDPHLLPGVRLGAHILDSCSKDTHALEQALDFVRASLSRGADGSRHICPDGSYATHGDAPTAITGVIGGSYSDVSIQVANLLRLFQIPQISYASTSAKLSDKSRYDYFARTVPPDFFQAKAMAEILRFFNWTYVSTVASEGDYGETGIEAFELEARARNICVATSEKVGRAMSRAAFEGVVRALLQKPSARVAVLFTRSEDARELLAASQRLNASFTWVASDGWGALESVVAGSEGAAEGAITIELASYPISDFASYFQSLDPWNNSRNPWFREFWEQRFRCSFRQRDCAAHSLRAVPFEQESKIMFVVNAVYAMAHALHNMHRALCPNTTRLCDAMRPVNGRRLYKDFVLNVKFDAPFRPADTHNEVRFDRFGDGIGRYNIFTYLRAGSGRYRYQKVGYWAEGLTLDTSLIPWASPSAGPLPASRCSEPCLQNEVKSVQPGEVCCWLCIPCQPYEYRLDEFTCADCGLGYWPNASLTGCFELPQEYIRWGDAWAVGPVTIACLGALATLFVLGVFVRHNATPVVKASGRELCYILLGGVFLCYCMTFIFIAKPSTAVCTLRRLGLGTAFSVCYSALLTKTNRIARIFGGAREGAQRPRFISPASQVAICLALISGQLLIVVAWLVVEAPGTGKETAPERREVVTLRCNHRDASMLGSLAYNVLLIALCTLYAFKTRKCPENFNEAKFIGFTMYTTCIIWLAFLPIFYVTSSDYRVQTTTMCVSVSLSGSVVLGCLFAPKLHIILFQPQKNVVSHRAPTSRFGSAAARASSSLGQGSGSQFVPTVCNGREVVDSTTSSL
T2 sequence (Q14832 23-879): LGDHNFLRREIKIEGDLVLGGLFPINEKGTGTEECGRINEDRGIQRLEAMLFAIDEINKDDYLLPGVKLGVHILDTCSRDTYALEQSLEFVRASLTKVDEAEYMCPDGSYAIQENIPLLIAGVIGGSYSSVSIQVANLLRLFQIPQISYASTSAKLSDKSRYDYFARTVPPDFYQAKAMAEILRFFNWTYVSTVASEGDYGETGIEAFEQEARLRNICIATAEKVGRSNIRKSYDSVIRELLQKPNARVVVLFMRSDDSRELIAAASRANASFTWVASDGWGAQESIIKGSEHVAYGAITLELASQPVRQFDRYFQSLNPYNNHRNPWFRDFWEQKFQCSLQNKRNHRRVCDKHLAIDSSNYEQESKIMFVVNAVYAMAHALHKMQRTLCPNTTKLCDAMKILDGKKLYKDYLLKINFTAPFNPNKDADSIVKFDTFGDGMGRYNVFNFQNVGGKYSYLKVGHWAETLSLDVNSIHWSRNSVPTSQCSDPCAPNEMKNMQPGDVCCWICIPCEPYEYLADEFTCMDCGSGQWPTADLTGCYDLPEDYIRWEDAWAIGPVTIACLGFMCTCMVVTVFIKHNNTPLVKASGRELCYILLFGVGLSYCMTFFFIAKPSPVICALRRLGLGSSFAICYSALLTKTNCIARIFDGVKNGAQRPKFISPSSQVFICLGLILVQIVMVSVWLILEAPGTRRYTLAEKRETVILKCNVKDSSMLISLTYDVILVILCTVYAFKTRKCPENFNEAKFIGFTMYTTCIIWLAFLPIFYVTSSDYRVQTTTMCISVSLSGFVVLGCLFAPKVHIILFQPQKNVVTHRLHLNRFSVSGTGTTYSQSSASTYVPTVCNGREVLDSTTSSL

As for `N[C@@]1(C(=O)O)CC2(CC2)[C@H]2[C@H](C(=O)O)[C@H]21` [Example 2, (1S,2S,5R,6S)-2-Aminospiro[bicyclo[3.1.0]hexane-4,1′-cyclopropane]-2,6-dicarboxylic acid], the EC50 (usually the concentration at which the effect is half-maximal) is 0.039 µM on human mGlu2 receptor and 0.285 µM at human mGlu3 receptor. The ED50 (commonly the dose at which the effect has come halfway, by size or by number of responders) in the series on male Sprague-Dawley rats turned out to be 0.7 mg/kg; in series [1] (0.5 h, i.p., 30 minutes prior to 5 mg/kg PCP, rat) it was 1.46 mg/kg. The “T35 (dose producing a 35% reduction in stress-induced hyperthermic response)” value in the series on Male Fischer F-344 rats amounted to 0.57 mg/kg.

In the case of `C[C@H](N)C(=O)N[C@@]1(C(=O)O)CC2(CC2)[C@H]2[C@H](C(=O)O)[C@H]21.Cl` [Example 5, (1S,2S,5R,6S)-2-[[(2S)-2-Aminopropanoyl]amino]spiro[bicyclo[3.1.0]hexane-4,1′-cyclopropane]-2,6-dicarboxylic acid hydrochloride], the median effective dose (ED50) in series [1] (Rattus norvegicus, p.o., overnight fasted rats, 4 hours prior to 5 mg/kg PCP) was found to be 2.95 mg/kg. For the same molecule, the “T35 (dose producing a 35% reduction in stress-induced hyperthermic response)” value in the series on Male Fischer F-344 rats came to 6.4 mg/kg. On hPepT1 (0.0625 to 25 mM, read-out: hPepT1 [3H]Gly-Sar uptake inhibition IC50), the IC50 (in general, the concentration needed to halve the response being measured) was found to be 1980 µM. Also, the inhibition (commonly the share of the control response that was lost under treatment) at 5000 µM at hPepT1 (pH 6.0, 3 minutes, read-out: hPepT1 [3H]Gly-Sar uptake inhibition at 5 mM) came out at 89%. In addition, in series [2], the “human intestinal hydrolysis relative to Internal Prodrug A” value worked out at 36%.
